From ChEMBL document CHEMBL5244202, “Structural evolution of toll-like receptor 7/8 agonists from imidazoquinolines to imidazoles” (RSC Med Chem, 2021)

Legend:
Toll-like receptor 7 [1] = target: T1, Toll-like receptor 7 (Homo sapiens, UniProt Q9NYK1); experiment: Agonist activity at recombinant human TLR7 transfected in HEK293 cells assessed as induction of SEAP production incubated overnight by SEAP reporter gene based assay; format: cell-based
T1 sequence (Q9NYK1 whole entry): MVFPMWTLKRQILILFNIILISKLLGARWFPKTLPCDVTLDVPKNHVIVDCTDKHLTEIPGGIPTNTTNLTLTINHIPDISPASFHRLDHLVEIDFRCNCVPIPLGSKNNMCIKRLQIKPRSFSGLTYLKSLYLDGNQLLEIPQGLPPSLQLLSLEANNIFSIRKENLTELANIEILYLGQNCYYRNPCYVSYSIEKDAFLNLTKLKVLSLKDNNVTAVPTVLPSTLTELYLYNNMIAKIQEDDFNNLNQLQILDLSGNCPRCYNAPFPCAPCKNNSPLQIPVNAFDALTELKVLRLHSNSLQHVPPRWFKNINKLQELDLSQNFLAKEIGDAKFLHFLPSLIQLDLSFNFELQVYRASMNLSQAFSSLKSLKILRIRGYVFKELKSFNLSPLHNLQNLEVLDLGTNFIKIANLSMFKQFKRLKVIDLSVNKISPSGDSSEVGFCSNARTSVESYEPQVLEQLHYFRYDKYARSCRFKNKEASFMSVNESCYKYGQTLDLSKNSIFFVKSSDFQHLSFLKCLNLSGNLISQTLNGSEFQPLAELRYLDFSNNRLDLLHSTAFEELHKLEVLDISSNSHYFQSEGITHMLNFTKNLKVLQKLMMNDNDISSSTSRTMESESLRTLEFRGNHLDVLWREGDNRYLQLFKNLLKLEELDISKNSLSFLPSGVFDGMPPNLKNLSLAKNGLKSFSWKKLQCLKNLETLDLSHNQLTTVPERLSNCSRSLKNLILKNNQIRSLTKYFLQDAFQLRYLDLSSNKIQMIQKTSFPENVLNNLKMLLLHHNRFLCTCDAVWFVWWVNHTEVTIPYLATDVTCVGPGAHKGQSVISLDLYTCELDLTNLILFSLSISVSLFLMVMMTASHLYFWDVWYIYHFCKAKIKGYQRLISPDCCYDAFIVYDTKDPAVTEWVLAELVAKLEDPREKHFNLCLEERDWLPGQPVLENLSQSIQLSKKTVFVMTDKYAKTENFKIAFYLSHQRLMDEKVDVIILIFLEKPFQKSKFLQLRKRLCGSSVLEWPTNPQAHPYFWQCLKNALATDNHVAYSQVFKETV

Toll-like receptor 7 [2] = target: T1, Toll-like receptor 7; experiment: Agonist activity at human TLR7 by reporter cell based assay
Toll-like receptor 8 = target: T2, Toll-like receptor 8 (Homo sapiens, UniProt Q9NR97); experiment: Agonist activity at human TLR8 in HEK-Blue hTLR8 cells assessed as activation of NFkappaB by SEAP reporter gene based spectrophotometry assay; format: cell-based
T2 sequence (Q9NR97 whole entry): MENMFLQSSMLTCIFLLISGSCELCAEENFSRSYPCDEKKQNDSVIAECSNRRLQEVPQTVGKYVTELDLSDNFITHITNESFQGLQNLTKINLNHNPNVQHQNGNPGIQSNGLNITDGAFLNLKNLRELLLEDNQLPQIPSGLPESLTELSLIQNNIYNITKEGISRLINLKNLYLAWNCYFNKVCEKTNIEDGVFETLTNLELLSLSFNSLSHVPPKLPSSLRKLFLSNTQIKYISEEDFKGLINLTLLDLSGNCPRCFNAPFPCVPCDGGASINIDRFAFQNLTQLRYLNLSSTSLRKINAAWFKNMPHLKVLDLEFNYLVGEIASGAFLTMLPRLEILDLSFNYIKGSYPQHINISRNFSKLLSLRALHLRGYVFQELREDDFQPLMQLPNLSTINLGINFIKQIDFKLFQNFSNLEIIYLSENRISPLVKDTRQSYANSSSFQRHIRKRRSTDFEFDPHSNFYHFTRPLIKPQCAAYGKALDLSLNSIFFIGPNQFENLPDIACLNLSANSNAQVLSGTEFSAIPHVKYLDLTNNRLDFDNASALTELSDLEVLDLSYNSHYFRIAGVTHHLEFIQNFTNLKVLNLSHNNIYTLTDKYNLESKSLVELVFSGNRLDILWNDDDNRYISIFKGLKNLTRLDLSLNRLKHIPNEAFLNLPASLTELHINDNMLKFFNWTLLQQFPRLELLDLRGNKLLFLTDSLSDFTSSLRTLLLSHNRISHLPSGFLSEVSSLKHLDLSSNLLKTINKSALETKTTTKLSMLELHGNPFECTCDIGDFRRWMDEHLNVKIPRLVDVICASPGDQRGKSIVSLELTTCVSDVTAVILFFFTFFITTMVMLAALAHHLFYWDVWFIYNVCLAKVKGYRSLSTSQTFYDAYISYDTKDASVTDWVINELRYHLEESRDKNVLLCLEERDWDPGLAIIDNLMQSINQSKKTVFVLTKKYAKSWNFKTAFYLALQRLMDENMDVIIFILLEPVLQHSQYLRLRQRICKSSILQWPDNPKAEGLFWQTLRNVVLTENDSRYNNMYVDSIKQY

Toll-like receptor 7 [3] = target: T1, Toll-like receptor 7; experiment: Agonist activity at human TLR7 in HEK-Blue hTLR7 cells assessed as activation of NFkappaB by SEAP reporter gene based spectrophotometry assay; format: cell-based

| EC50 (Toll-like receptor 7 [2]) [µM] | Structure (SMILES) | other results |
| --- | --- | --- |
| 0.0251 | CCCC[C@@H](CCO)Nc1nc(N)nc(C)c1Cc1ccc(CC(=O)OCCCCN(C)C)cc1 |  |
| 0.794 | CCCCCNc1nc(N)nc(C)c1CCCN(Cc1ccc(CC(=O)OC)cc1)C(=O)CC1CCN(C)CC1 |  |
| 0.158 | CCCCc1nc2c(N)nc3ccccc3c2n1CCCN(CCCN(C)CC)Cc1cccc(C(=O)OC)c1 |  |
| 0.316 | CCCCc1nc2c(N)nc3ccccc3c2n1CCCN(Cc1cccc(C(=O)OC)c1)C1CCN(C)CC1 |  |
| 0.0794 | CCCCc1nc2c(N)nc3ccccc3c2n1CCCN(Cc1cccc(C(=O)OC)c1)C(=O)CN1CCN(C)CC1 |  |
| 0.251 | CCCCc1nc2c(N)nc3ccccc3c2n1CCCN(CCCN1CCN(C)CC1)Cc1cccc(C(=O)OC)c1 |  |
| 0.501 | CCCCc1nc2c(N)nc3ccccc3c2n1CCCN(Cc1cccc(C(=O)OC)c1)C(=O)CN1CCCN(C(C)=O)CC1 |  |
| 0.398 | CCCCc1nc2c(N)nc3ccccc3c2n1CCCN(Cc1cccc(C(=O)OC)c1)C(=O)CN1CCCOCC1 |  |
| 0.0794 | CCCCc1nc2c(N)nc3ccccc3c2n1CCCN(Cc1cccc(C(=O)OC)c1)C(=O)CN1CCCCCC1 |  |
| 0.501 | CCCCc1nc2c(N)nc3ccccc3c2n1CCCN(Cc1cccc(C(=O)OC)c1)C(=O)CN1CCN(CCO)CC1 |  |
| 1.26 | CCCC[C@@H](CO)Nc1nc(N)nc(C)c1Cc1ccc(CC(=O)OCCCCN(C)C)cc1 |  |
| 0.631 | CCCCCNc1nc(N)nc(C)c1CCCN(Cc1ccc(CC(=O)OC)cc1)C(=O)CN1CCCCC1 |  |
| 0.794 | CCCCc1nc2c(N)nc3ccccc3c2n1CCCN(Cc1cccc(C(=O)OC)c1)C(=O)CN1CCN(S(C)(=O)=O)CC1 |  |
| 0.0316 | CCCCCNc1nc(N)nc(C)c1Cc1cccc(CC(=O)OCCCCN(C)C)c1 |  |
| 0.0398 | CCCC[C@@H](CCO)Nc1nc(N)nc(C)c1Cc1ccc(CC(=O)OCC2CCN(C)CC2)cc1F |  |
| 0.0398 | CCCCc1nc2c(N)nc3ccccc3c2n1CCCN(Cc1cccc(C(=O)OC)c1)C(=O)CN(C)C |  |
| 1.26 | CCCCc1nc2c(N)nc3ccccc3c2n1CCCN(Cc1cccc(C(=O)OC)c1)C(=O)CN1CCN(C(C)=O)CC1 |  |
| 0.398 | CCCCc1nc2c(N)nc3ccccc3c2n1CCCN(Cc1cccc(C(=O)OC)c1)C(=O)CN1CC[C@@H](O)C1 |  |
| 0.2 | CCCCc1nc2c(N)nc3ccccc3c2n1CCCN(Cc1cccc(C(=O)OC)c1)C(=O)CN1CCC(OC)CC1 |  |

Further lines, the molecule ahead of its results:

| Structure (SMILES) | EC50 (Toll-like receptor 7 [2]) [µM] | other results |
| --- | --- | --- |
| CCC[C@@H](CO)Nc1nc(N)nc(C)c1Cc1ccc(CNC2CNC2)cc1OC |  | EC50 (Toll-like receptor 7 [1]): 0.38 µM |
| CCCCc1nc2c(N)nc3ccccc3c2n1CCCN(Cc1cccc(C(=O)OC)c1)C(=O)CN1CC(O)C1 | 1.58 |  |
| CCCCc1nc2c(N)nc3ccccc3c2n1CCCN(Cc1cccc(C(=O)OC)c1)C(=O)CN1CCC(O)CC1 | 0.501 |  |
| CCCCc1nc2c(N)nc3ccccc3c2n1CCCN(Cc1cccc(C(=O)OC)c1)C(=O)CN(C)CCCC | 0.126 |  |
| CCCC[C@@H](CCO)Nc1nc(N)nc(C)c1Cc1ccc(CC(=O)OCCCCN2CCN(C)CC2)cc1F | 0.0251 |  |
| CCCCc1nc2c(N)nc3ccccc3c2n1CCCN(Cc1cccc(C(=O)OC)c1)C(=O)CN(CCC)CCC | 0.0794 |  |
| CCCCc1nc2c(N)nc3ccccc3c2n1CCCN(Cc1cccc(C(=O)OC)c1)C(=O)CN1CCCC1 | 0.0631 |  |
| CCCc1nc2c(NS(C)(=O)=O)nc3ccccc3c2s1 |  | EC50 (Toll-like receptor 8; hek-blue htlr8): 10.6 µM |
| CCCc1nc2c(NC=O)nc3ccccc3c2s1 |  | EC50 (Toll-like receptor 8): 0.88 µM |
| CCC[C@@H](CCO)Nc1nc(N)nc(C)c1Cc1ccc(CN2CCCC2)cc1OC |  | EC50 (Toll-like receptor 7 [1]): < 0.00195 µM |
| CCCCc1nc2c(N)nc3ccccc3c2n1CCCN(Cc1cccc(C(=O)OC)c1)C(=O)CN1CCC1 | 0.251 |  |
| CCC[C@@H](CO)Nc1nc(N)nc(C)c1Cc1ccc(CN(C)C)cc1OC |  | EC50 (Toll-like receptor 7 [1]): 0.00229 µM |
| Cc1nc2c(N)nc3ccccc3c2s1 |  | EC50 (Toll-like receptor 7 [3]; hek-blue htlr7): 10.2 µM |
| CCCCCNc1nc(N)nc(C)c1CCCN(Cc1cccc(CC(=O)OC)c1)C(=O)CN1CCC[C@@H]1C(=O)OC | 0.631 |  |
| CCCc1nc2c(NC(=O)CCN=[N+]=[N-])nc3ccccc3c2s1 |  | EC50 (Toll-like receptor 8; hek-blue htlr8): 2.23 µM |
| CCCCc1nc2c(NC=O)nc3ccccc3c2s1 |  | EC50 (Toll-like receptor 7 [3]; hek-blue htlr7): 2.54 µM |
| CCC[C@@H](CCO)Nc1nc(N)nc(C)c1Cc1ccc(Cn2ccnc2)cc1OC |  | EC50 (Toll-like receptor 7 [1]): 0.00275 µM |
| CCCc1nc2c(N)nc3ccc(N)cc3c2s1 |  | EC50 (Toll-like receptor 8; hek-blue htlr8): 3.88 µM |
| CCCCc1nc2c(N)nc3ccccc3c2n1CCCN(Cc1cccc(C(=O)OC)c1)C(=O)CN1CCC(C(=O)N(C)C)CC1 | 0.631 |  |
| CCCCc1nc2c(N)nc3ccccc3c2n1CCCN(CCCN(C)C)Cc1cccc(C(=O)OC)c1 | 0.251 |  |
| CCCCc1nc2c(N)nc3ccccc3c2n1CCCN(Cc1cccc(C(=O)OC)c1)C(=O)CN1CCCCC1 | 0.0794 |  |

| Structure (SMILES) | EC50 (Toll-like receptor 7 [2]) [µM] | other results |
| --- | --- | --- |
| CCCCc1nc2c(N)nc3ccccc3c2n1CCCN(Cc1cccc(C(=O)OC)c1)C(=O)CN1CCCN(S(C)(=O)=O)CC1 | 0.631 |  |
| CCCCc1nc2c(N)nc3ccccc3c2n1CCCN(Cc1cccc(C(=O)OC)c1)C(=O)CN(CCO)CCO | 1.58 |  |
| CCCCc1nc2c(N)nc3ccccc3c2n1CCCN(Cc1cccc(C(=O)OC)c1)C(=O)CN1CCCN(C(=O)NCC)CC1 | 1.26 |  |
| COCCc1nc2c(N)nc3ccccc3c2n1CCCN(Cc1ccc(CC(=O)OC)cc1)C(=O)CCN(C)C | 0.158 |  |
| CCCCc1nc2c(N)nc3ccccc3c2n1CCCN(Cc1cccc(C(=O)OC)c1)C(=O)CN1C[C@@H](C)O[C@@H](C)C1 | 1 |  |
| CCCCc1nc2c(N)nc(NCC3CCCCC3)cc2n1Cc1ccccc1 |  | EC50 (Toll-like receptor 7 [3]): 0.32 µM |
| CCCC[C@@H](CCO)Nc1nc(N)nc(C)c1Cc1ccc(CC(=O)OCCCCN(C)C)cc1F | 0.2 |  |
| CCCCc1nc2c(N)nc(NCc3cccnc3)cc2n1Cc1ccccc1 |  | EC50 (Toll-like receptor 7 [3]): 0.25 µM |
| CC[C@H](C)c1nc2c(N)nc3ccccc3c2s1 |  | EC50 (Toll-like receptor 8; hek-blue htlr8): 2.77 µM |
| CCCC[C@@H](CCO)Nc1nc(N)nc(C)c1Cc1ccc(CC(=O)OCCC2CCN(C)CC2)cc1F | 0.0316 |  |
| CCC[C@@H](CO)Nc1nc(N)nc(C)c1Cc1ccc(CNCCO)cc1OC |  | EC50 (Toll-like receptor 7 [1]): 0.0955 µM |
| CCCCc1nc2c(N)nc3ccccc3c2n1CCCN(Cc1cccc(C(=O)OC)c1)C(=O)CN(C)CCOC | 0.158 |  |
| CCC[C@@H](CCO)Nc1nc(N)nc(C)c1Cc1ccc(CN2CCNCC2)cc1OC |  | EC50 (Toll-like receptor 7 [1]): 0.00589 µM |
| CCCCc1nc2c(N)nc3ccccc3c2n1CCCN(Cc1cccc(C(=O)OC)c1)C(=O)CN1CCCN(C)CC1 | 0.251 |  |
| CCCCc1nc2c(N)nc3ccccc3c2n1CCCN(Cc1cccc(C(=O)OC)c1)C(=O)CN1CCC(O)C1 (stereo unspecified) | 0.398 |  |
| CCC[C@@H](CCO)Nc1nc(N)nc(C)c1Cc1ccc(CN(C)CCOC)cc1OC |  | EC50 (Toll-like receptor 7 [1]): < 0.00195 µM |
| CCCCc1nc2c(N)nc3ccccc3c2n1CCCN(CCCN1CCOCC1)Cc1cccc(C(=O)OC)c1 | 0.251 |  |
| CCCCc1nc2c(N)nc3ccccc3c2n1CCCN(Cc1cccc(C(=O)OC)c1)C(=O)CN(C)C1CCOCC1 | 0.126 |  |
| CCCc1nc2c(N)nc3ccc(-n4cc([Si](C)(C)C)nn4)cc3c2s1 |  | EC50 (Toll-like receptor 8; hek-blue htlr8): 9.84 µM |
| CCC[C@@H](CCO)Nc1nc(N)nc(C)c1Cc1ccc(CN2CCN(C)CC2)cc1OC |  | EC50 (Toll-like receptor 7 [1]): < 0.00195 µM |
| CCCCc1nc2c(N)nc(NCc3ccc(OC)cc3)cc2n1Cc1ccccc1 |  | EC50 (Toll-like receptor 7 [3]): 0.075 µM |
